Measurements published in ChEMBL document CHEMBL1201862, “PubChem BioAssay data set” (2004).
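Protocol summary: plate cells (96-well), add compound at 5 concentrations, incubate 48 h, interpolate endpoints linearly. GI50 = concentration required for 50% inhibition of growth.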 Active and inactive are the calls of the source. Cut-off read from the data, not from the text of the source: active = GI50 up to about 1.1 µM and inactive = higher.

Columns and labels:
Assay in all cases: inhibition of tumour cell growth, NCI panel, 48 h
NCI-H23 = system: NCI-H23
SK-OV-3 = system: SK-OV-3
CAKI-1 = system: CAKI-1
NCI-H522 = system: NCI-H522
SF-539 = system: SF-539
UACC-62 = system: UACC-62
MDA-N = system: MDA-N
SNB-75 = system: SNB-75
786-0 = system: 786-0
K562 = system: K562
OVCAR-8 = system: OVCAR-8
HOP-62 = system: HOP-62
T47D = system: T47D
IGROV-1 = system: IGROV-1
HCT-15 = system: HCT-15
PC-3 = system: PC-3
KM12 = system: KM12
HCC 2998 = system: HCC 2998
MDA-MB-435 = system: MDA-MB-435
MOLT-4 = system: MOLT-4
SF-268 = system: SF-268
OVCAR-5 = system: OVCAR-5
DU-145 = system: DU-145
SN12C = system: SN12C
UO-31 = system: UO-31
SK-MEL-2 = system: SK-MEL-2
A498 = system: A498
UACC-257 = system: UACC-257
CCRF-CEM = system: CCRF-CEM
SW-620 = system: SW-620
U-251 = system: U-251
OVCAR-3 = system: OVCAR-3
COLO 205 = system: COLO 205
SR = system: SR
Hs-578T = system: Hs-578T
HCT-116 = system: HCT-116
HL-60 = system: HL-60
MDA-MB-231 = system: MDA-MB-231
NCI-H460 = system: NCI-H460
ACHN = system: ACHN
NCI/ADR-RES = system: NCI/ADR-RES
HT-29 = system: HT-29
NCI-H226 = system: NCI-H226
MCF7 = system: MCF7
Malme-3M = system: Malme-3M
SK-MEL-5 = system: SK-MEL-5
SNB-19 = system: SNB-19
SF-295 = system: SF-295
A549 = system: A549
BT-549 = system: BT-549
M14 = system: M14
TK-10 = system: TK-10
OVCAR-4 = system: OVCAR-4
RPMI-8226 = system: RPMI-8226
LOX IMVI = system: LOX IMVI
SK-MEL-28 = system: SK-MEL-28
HOP-92 = system: HOP-92
EKVX = system: EKVX

Cc1ncc([N+](=O)[O-])n1CCNC(=O)CCCCCn1ccnc1[N+](=O)[O-]
GI50 (NCI-H23): > 100 µM (inactive)
GI50 (SK-OV-3): > 100 µM (inactive)
GI50 (CAKI-1): > 100 µM (inactive)
GI50 (NCI-H522): > 100 µM (inactive)
GI50 (SF-539): > 100 µM (inactive)
GI50 (UACC-62): > 100 µM (inactive)
GI50 (MDA-N): > 100 µM (inactive)
GI50 (SNB-75): > 100 µM (inactive)
GI50 (786-0): > 100 µM (inactive)
GI50 (K562): > 100 µM (inactive)
GI50 (OVCAR-8): > 100 µM (inactive)
GI50 (HOP-62): > 100 µM (inactive)
GI50 (T47D): > 100 µM (inactive)
GI50 (IGROV-1): > 100 µM (inactive)
GI50 (HCT-15): > 100 µM
GI50 (PC-3): > 100 µM (inactive)
GI50 (KM12): > 100 µM (inactive)
GI50 (HCC 2998): > 100 µM (inactive)
GI50 (MDA-MB-435): > 100 µM (inactive)
GI50 (MOLT-4): > 100 µM (inactive)
GI50 (SF-268): > 100 µM (inactive)
GI50 (OVCAR-5): > 100 µM (inactive)
GI50 (DU-145): > 100 µM (inactive)
GI50 (SN12C): > 100 µM (inactive)
GI50 (UO-31): > 100 µM (inactive)
GI50 (SK-MEL-2): > 100 µM (inactive)
GI50 (A498): > 100 µM (inactive)
GI50 (UACC-257): > 100 µM (inactive)
GI50 (CCRF-CEM): > 100 µM (inactive)
GI50 (SW-620): > 100 µM (inactive)
GI50 (U-251): > 100 µM (inactive)
GI50 (OVCAR-3): > 100 µM (inactive)
GI50 (COLO 205): 43.6 µM (inactive)
GI50 (SR): > 100 µM (inactive)
GI50 (Hs-578T): > 100 µM (inactive)
GI50 (HCT-116): > 100 µM (inactive)
GI50 (HL-60): > 100 µM (inactive)
GI50 (MDA-MB-231): > 100 µM (inactive)
GI50 (NCI-H460): > 100 µM (inactive)
GI50 (ACHN): > 100 µM (inactive)
GI50 (NCI/ADR-RES): > 100 µM (inactive)
GI50 (HT-29): > 100 µM (inactive)
GI50 (NCI-H226): > 100 µM (inactive)
GI50 (MCF7): > 100 µM (inactive)
GI50 (Malme-3M): > 100 µM (inactive)
GI50 (SK-MEL-5): > 100 µM (inactive)
GI50 (SNB-19): > 100 µM (inactive)
GI50 (SF-295): > 100 µM (inactive)
GI50 (A549): > 100 µM (inactive)
GI50 (BT-549): > 100 µM (inactive)
GI50 (M14): > 100 µM (inactive)

COC(=O)C1=Nc2c(C)nn(-c3ccccc3)c2N=C(c2ccccc2)C1
GI50 (NCI-H23): > 10 µM (inactive)
GI50 (SK-OV-3): > 10 µM (inactive)
GI50 (CAKI-1): > 10 µM (inactive)
GI50 (NCI-H522): > 10 µM (inactive)
GI50 (TK-10): > 10 µM (inactive)
GI50 (OVCAR-4): > 10 µM (inactive)
GI50 (SF-539): > 10 µM (inactive)
GI50 (UACC-62): > 10 µM (inactive)
GI50 (MDA-N): > 10 µM (inactive)
GI50 (SNB-75): > 10 µM (inactive)
GI50 (786-0): > 10 µM (inactive)
GI50 (K562): > 10 µM (inactive)
GI50 (OVCAR-8): > 10 µM (inactive)
GI50 (HOP-62): > 10 µM (inactive)
GI50 (T47D): > 10 µM (inactive)
GI50 (IGROV-1): > 10 µM (inactive)
GI50 (HCT-15): > 10 µM
GI50 (RPMI-8226): > 10 µM (inactive)
GI50 (PC-3): > 10 µM (inactive)
GI50 (KM12): > 10 µM (inactive)
GI50 (HCC 2998): > 10 µM (inactive)
GI50 (MDA-MB-435): > 10 µM (inactive)
GI50 (MOLT-4): > 10 µM (inactive)
GI50 (SF-268): > 10 µM (inactive)
GI50 (OVCAR-5): 0.001 µM (active)
GI50 (DU-145): > 10 µM (inactive)
GI50 (SN12C): > 10 µM (inactive)
GI50 (LOX IMVI): > 10 µM (inactive)
GI50 (UACC-257): > 10 µM (inactive)
GI50 (SK-MEL-28): > 10 µM (inactive)
GI50 (SW-620): > 10 µM (inactive)
GI50 (U-251): > 10 µM (inactive)
GI50 (OVCAR-3): > 10 µM (inactive)
GI50 (COLO 205): > 10 µM (inactive)
GI50 (SR): > 10 µM (inactive)
GI50 (Hs-578T): > 10 µM (inactive)
GI50 (HCT-116): > 10 µM (inactive)
GI50 (HL-60): > 10 µM (inactive)
GI50 (MDA-MB-231): > 10 µM (inactive)
GI50 (HOP-92): > 10 µM (inactive)
GI50 (ACHN): > 10 µM (inactive)
GI50 (NCI/ADR-RES): > 10 µM (inactive)
GI50 (HT-29): > 10 µM (inactive)
GI50 (MCF7): > 10 µM (inactive)
GI50 (Malme-3M): > 10 µM (inactive)
GI50 (SK-MEL-5): > 10 µM (inactive)
GI50 (SNB-19): > 10 µM (inactive)
GI50 (SF-295): > 10 µM (inactive)
GI50 (A549): > 10 µM (inactive)
GI50 (BT-549): > 10 µM (inactive)
GI50 (M14): > 10 µM (inactive)

C=C1CC(Cn2cc(Br)c(=O)[nH]c2=O)(c2ccc(Br)cc2)OC1=O (stereo not given)
GI50 (NCI-H23): 3.81 µM (inactive)
GI50 (SK-OV-3): 12.2 µM (inactive)
GI50 (CAKI-1): 2.38 µM (inactive)
GI50 (NCI-H522): 1.6 µM (inactive)
GI50 (TK-10): 7.23 µM (inactive)
GI50 (OVCAR-4): 1.85 µM (inactive)
GI50 (SF-539): 6.44 µM (inactive)
GI50 (UACC-62): 2.4 µM (inactive)
GI50 (MDA-N): 2.37 µM (inactive)
GI50 (EKVX): 17.9 µM (inactive)
GI50 (SNB-75): 13.2 µM (inactive)
GI50 (786-0): 1.63 µM (inactive)
GI50 (K562): 0.644 µM (active)
GI50 (OVCAR-8): 15.3 µM (inactive)
GI50 (HOP-62): 14.5 µM (inactive)
GI50 (T47D): 2.03 µM (inactive)
GI50 (IGROV-1): 1.89 µM (inactive)
GI50 (HCT-15): 1.83 µM
GI50 (RPMI-8226): 0.331 µM (active)
GI50 (PC-3): 3.56 µM (inactive)
GI50 (KM12): 4.02 µM (inactive)
GI50 (HCC 2998): 3.48 µM (inactive)
GI50 (MDA-MB-435): 2.88 µM (inactive)
GI50 (MOLT-4): 1.79 µM (inactive)
GI50 (SF-268): 13.6 µM (inactive)
GI50 (OVCAR-5): 6.38 µM (inactive)
GI50 (DU-145): 5.65 µM (inactive)
GI50 (SN12C): 6.81 µM (inactive)
GI50 (UO-31): 14.1 µM (inactive)
GI50 (SK-MEL-2): 1.72 µM (inactive)
GI50 (A498): 1.22 µM (inactive)
GI50 (LOX IMVI): 1.58 µM (inactive)
GI50 (UACC-257): 1.82 µM (inactive)
GI50 (CCRF-CEM): 0.614 µM (active)
GI50 (SK-MEL-28): 7.19 µM (inactive)
GI50 (SW-620): 1.49 µM (inactive)
GI50 (U-251): 13.3 µM (inactive)
GI50 (OVCAR-3): 3.34 µM (inactive)
GI50 (COLO 205): 1.53 µM (inactive)
GI50 (SR): 1.52 µM (inactive)
GI50 (Hs-578T): 5.98 µM (inactive)
GI50 (HCT-116): 1.36 µM (inactive)
GI50 (HL-60): 0.621 µM (active)
GI50 (MDA-MB-231): 4.47 µM (inactive)
GI50 (NCI-H460): 14.1 µM (inactive)
GI50 (HOP-92): 1.33 µM (inactive)
GI50 (ACHN): 3.66 µM (inactive)
GI50 (NCI/ADR-RES): 2.59 µM (inactive)
GI50 (HT-29): 2.3 µM (inactive)
GI50 (NCI-H226): 13.4 µM (inactive)
GI50 (MCF7): 2.61 µM (inactive)
GI50 (Malme-3M): 1.87 µM (inactive)
GI50 (SK-MEL-5): 3.01 µM (inactive)
GI50 (SNB-19): 15.8 µM (inactive)
GI50 (SF-295): 12.1 µM (inactive)
GI50 (A549): 14.8 µM (inactive)
GI50 (BT-549): 2.37 µM (inactive)
GI50 (M14): 1.59 µM (inactive)
